We go through 25 compounds from patent US20260035360A1, “INHIBITORS OF MYC AND USES THEREOF” (Northwestern University, priority 2022, published 2026).

Data set [1] relates to PC3 cells. In words: PC3 cell viability, CellTitreGlo Assay, 72 hrs. Format: cell-based. The following applies: Homo sapiens, PC-3. As to the method: (§1) Table 2. Biological data of selected compounds. For IC50 determination. PC3 and PC12 cells were treated with increasing concentrations of the indicated compounds for 72 hrs and cell viability assessed using CellTitreGlo Assay (Promega). For MYC and ATF4 protein level determination. PC3 cells were treated with the indicated compounds for 24 hr sand cell lysates processed for western blot with MYC and ATF4 antibodies using Actin as a control. Quantification analyses were performed by Biorad ChemiDoc Imager and Bio-Rad Image Lab software.

For data set [2], the system named is PC12 cells. Kind of data set: PC12 cell viability, CellTitreGlo Assay, 72 hrs. In kind it is cell-based. As to conditions: for IC50: Rattus norvegicus, PC-12. On the procedure: as §1
Data set [3] addresses T1, MYC (Homo sapiens, UniProt P01106).
T1 construct: endogenous in cells; host or cells: PC3 cells
Kind of data set: MYC protein level in PC3 cells by western blot, 24 hr. Format: cell-based. As to conditions: PC-3, 24 h, PC3, 24 h, Actin control, read-out: Relative MYC protein at 10 μM (%, PC3 24 h). On the procedure:
as §1
Background: In western blotting, separated proteins are transferred to a membrane and probed.

Data set [4] relates to ATF4. In words: ATF4 protein level in PC3 cells by western blot, 24 hr. As to conditions: Homo sapiens, PC-3, PC3, 24 h, Actin control, read-out: Relative ATF4 protein at 10 μM (fold change, PC3 24 h). In kind it is cell-based. On the procedure:
as §1

For data set [5] the following is noted: female, mouse, in vivo, po, 1 mg/kg.
Description: (§2) PK: Plasma levels of compounds were determined after 1 mg/kg dosing PO in female BALB/C mice.
(§3) Plasma levels of compounds were determined after 1 mg/kg dosing PO in female BALB/C mice.
Data set [6] is described as follows: Plasma pharmacokinetics after 1 mg/kg PO in female mice. The following applies: mouse; for half-life: female mice.
Description: as §2, §3
In data set [7] the test system is MycCaP;Pten-KO cells. Kind of data set: Tumor growth inhibition, MycCaP;Pten-KO subcutaneous allograft in male FVB/N mice. Format: in vivo. As to conditions: after 14 d; for TGI: QD, Table 7. On the procedure: Table 3. Biological data of selected compounds. […] Tumor growth inhibition (TGI) was determined after 14 d.
Table 7. Tumor Growth Inhibition data. […] Tumor growth inhibition (TOD was determined after 14 d.

Some results are limits rather than exact numbers.

T1 sequence (P01106 whole entry): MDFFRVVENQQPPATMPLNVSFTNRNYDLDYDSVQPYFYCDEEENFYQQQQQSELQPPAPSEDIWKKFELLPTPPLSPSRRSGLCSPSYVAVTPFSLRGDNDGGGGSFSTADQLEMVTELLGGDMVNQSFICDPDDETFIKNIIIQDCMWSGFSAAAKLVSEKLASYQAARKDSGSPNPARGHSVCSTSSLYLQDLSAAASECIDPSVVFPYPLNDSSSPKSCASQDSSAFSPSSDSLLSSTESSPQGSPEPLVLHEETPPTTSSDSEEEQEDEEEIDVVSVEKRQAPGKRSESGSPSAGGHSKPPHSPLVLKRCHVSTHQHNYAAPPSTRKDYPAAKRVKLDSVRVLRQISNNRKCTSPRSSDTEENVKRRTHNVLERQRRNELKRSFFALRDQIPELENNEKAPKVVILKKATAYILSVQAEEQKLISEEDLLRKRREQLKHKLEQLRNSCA

One may read the IC50 as the concentration at which inhibition is half-maximal. Broadly, the AUC(0-t) is exposure summed from dosing to a finite time, without extrapolation to infinity. Broadly, the Cmax is the maximum level reached in the sampled fluid or tissue. As a reminder, the Tmax is the time at which the peak concentration occurs. `Cn1nc(C(F)(F)F)cc1-c1ccc(COc2ccc(Cl)cc2)c(-c2ccc(Cl)c(C(F)(F)F)c2)c1O` [NUCC-0202416]: it took 4.71 µM to reach half-maximal inhibition in data set [1] (IC50). Also, the “PC12 IC50” value in data set [2] was “inactive”. In data set [3], the remaining activity at 10 µM came out at 38.9%. Further, the fold induction at 10 µM in data set [4] was found to be 9.3. Besides, in data set [5], the AUMC0-t is 88636 h*h*ng/mL. For the same compound, in data set [6], the AUC(0-t) worked out at 5760 ng·h/mL, the Cmax was 244 ng/mL and the Tmax came to 8 h.
For the compound `C[C@@H](C(=O)N[C@H](C(=O)N1C[C@@H](NC(=O)COCCOCCNC(=O)CCOCCCN(C(=O)c2ccc(Cl)c(C(F)(F)F)c2)c2ccc(-c3cc(C(F)(F)F)nn3C)c(O)c2)C[C@H]1C(=O)N[C@@H]1CCCc2ccccc21)C1CCCCC1)N(C)C(=O)OC(C)(C)C` [NUCC-0226299], the 50% inhibitory concentration (IC50) in data set [1] was found to be 3.8 µM; in data set [2], 11.3 µM. Moreover, the remaining activity at 10 µM in data set [3] was determined as 42.1%. Further, the fold induction at 10 µM in data set [4] worked out at 5.4.
The matching figures for `Cn1nc(C(F)(F)F)cc1-c1ccc(OCc2ccc(OCCOCCNc3cccc4c3C(=O)N(C3CCC(=O)NC3=O)C4=O)cc2)c(-c2ccc(Cl)c(C(F)(F)F)c2)c1O` (centres unmarked) [NUCC-0226301]: 1.1 µM, 3.8 µM, 48.5% and 3.2.
The matching figures for `Cc1ccc(C2(Oc3ccc(-c4cc(C(F)(F)F)nn4C)c(O)c3-c3ccc(Cl)c(C(F)(F)F)c3)CC2)cc1` [NUCC-0226495]: 3.8 µM, 597 µM, 15.6% and 11.5.
As to `Cn1nc(C(F)(F)F)cc1-c1ccc(OCc2ccc(Cl)cc2)c(-c2ccc(Cl)c(C#N)c2)c1O` [NUCC-0226499], the half-inhibitory concentration (IC50) came to 2.4 µM in data set [1] and 13.5 µM in data set [2]. Also, in data set [3], the remaining activity at 10 µM stood at 37.3%. In addition, in data set [4], the fold induction at 10 µM came to 17.1.
The matching figures for `COc1c(Cl)cc(-c2cc(C(F)(F)F)nn2C)c(O)c1-c1ccc(Cl)c(C(F)(F)F)c1` [NUCC-0226500]: 1.6 µM, 8.6 µM, 72.4% and 7.7.
The matching figures for `Cn1nc(C(F)(F)F)cc1-c1cc(Cl)c(N)c(-c2ccc(Cl)c(C(F)(F)F)c2)c1O` [NUCC-0226528]: 4.5 µM, 30.5 µM, 19.8% and 2.
As for `CNc1c(Cl)cc(-c2cc(C(F)(F)F)nn2C)c(O)c1-c1ccc(Cl)c(C(F)(F)F)c1` [NUCC-0226529], the figures for the half-inhibitory concentration (IC50) in data set [1] and in data set [2] were 3.1 µM and 19.4 µM, respectively. For the same compound, in data set [3], the remaining activity at 10 µM worked out at 41.3%. For the same compound, in data set [4], the fold induction at 10 µM turned out to be 2.4.
In the same order, the values of `CN(C)c1c(Cl)cc(-c2cc(C(F)(F)F)nn2C)c(O)c1-c1ccc(Cl)c(C(F)(F)F)c1` [NUCC-0226530] are 12 µM, 9.4 µM, 35.5% and 3.
Usually MRT inf stands for the average time that molecules of a dose stay in the body. As a reminder, the half-life is the time needed for the level to fall by half in the phase considered. A lower half-life goes with rapid decline. Turning to `Cn1nc(C(F)(F)F)cc1-c1c(F)cc(OCc2ccc(Cl)cc2)c(-c2ccc(Cl)c(C(F)(F)F)c2)c1O` [NUCC-0226545], the IC50 in data set [1] worked out at 2.2 µM. This compound gave an IC50 in data set [2] of 10.8 µM. Besides, the remaining activity at 10 µM in data set [3] is 19.5%. Further, in data set [4], the fold induction at 10 µM was 4.7. This compound also yielded an AUMC0-t in data set [5] of 36107 h*h*ng/mL. Further, in data set [6], the AUC(0-t) came to 4760 ng·h/mL, the highest level (Cmax) was 472 ng/mL, the MRT inf was 7.57 h and the Tmax was 4 h. Further, in data set [6] (T1/2, Table 4, PO 1 mg/kg), the half-life was 4.3 h. For the same compound, the half-life in data set [6] (T1/2—range*, Table 4, PO 1 mg/kg) fell in the range of 8 to 24 h.
Turning to `Cn1nc(C(F)(F)F)cc1-c1ccnc(-c2ccc(Cl)c(C(F)(F)F)c2)c1O` [NUCC-0226595], the half-maximal inhibitory concentration (IC50) in data set [1] was 0.74 µM; in data set [2], 4.03 µM. In addition, the remaining activity at 10 µM in data set [3] was found to be 69.8%. The fold induction at 10 µM in data set [4] stood at 6.3.
For orientation: TGI means how far tumour growth fell short of that in controls. A lower TGI goes with little slowing of growth. Consider `Cn1nc(C(F)(F)F)c(Cl)c1-c1ccc(COc2ccc(Cl)cc2)c(-c2ccc(Cl)c(C(F)(F)F)c2)c1O` [NUCC-0226606], for which the IC50 was found to be 2.23 µM in data set [1] and 16.6 µM in data set [2]. In addition, the remaining activity at 10 µM in data set [3] stood at 38.2 ± 3.9%. Besides, the fold induction at 10 µM in data set [4] turned out to be 9.7 ± 1.2. Moreover, the TGI in data set [7] (10 mg/kg p.o.) is given as 43.1%; in data set [7] (30 mg/kg p.o.) it was 56.4%; in data set [7] (100 mg/kg p.o.), 74.6%. The “Efficacy MycCaP;Pten-ko (TGI @ 100 mg/kg/d po)” value in data set [7] (100 mg/kg/d po, male FVB/N mice, Table 3) is recorded as 75. This compound also yielded an AUMC0-t in data set [5] of 177148 h*h*ng/mL. For the same compound, the AUC(0-t) in data set [6] was found to be 15200 ng·h/mL. The same compound came in with a Cmax in data set [6] of 841 ng/mL. Moreover, the Tmax in data set [6] was determined as 12 h.
For the compound `Cn1nc(C(F)(F)F)cc1-c1ccc(-c2ccc(Cl)cc2)c(OCc2ccc(Cl)c(C(F)(F)F)c2)c1O` [NUCC-0226652], the IC50 in data set [1] worked out at 4.42 µM; in data set [2], 16.6 µM. Also, the remaining activity at 10 µM in data set [3] amounted to 72.3%. In addition, the fold induction at 10 µM in data set [4] worked out at 5.2.
The matching figures for `Cn1cncc1-c1ccc(OCc2ccc(Cl)cc2)c(-c2ccc(Cl)c(C(F)(F)F)c2)c1O` [NUCC-0226660]: over 50 µM, 9.22 µM, 94.4% and 2.5.
The matching figures for `Cn1nc(C#N)cc1-c1ccc(OCc2ccc(Cl)cc2)c(-c2ccc(Cl)c(C(F)(F)F)c2)c1O` [NUCC-0226914]: 1.01 µM, 3.5 µM, 48.5% and 14.1.
Take `Cn1nc(N)cc1-c1ccc(OCc2ccc(Cl)cc2)c(-c2ccc(Cl)c(C(F)(F)F)c2)c1O` [NUCC-0226915]: the half-inhibitory concentration (IC50) in data set [1] stood at 14.2 µM; in data set [2], 10.5 µM. For the same compound, in data set [3], the remaining activity at 10 µM amounted to 86.9%. Also, the fold induction at 10 µM in data set [4] was 0.95.
In the same order, the values of `Cn1nc(C(F)(F)F)c(Cl)c1-c1cc(Cl)c(COc2ccc(Cl)cc2Cl)c(-c2ccc(Cl)c(C(F)(F)F)c2)c1O` [NUCC-0227038] are 1.61 µM, 15.3 µM, 34.5% and 15.1.
The matching figures for `Cn1nc(C(F)(F)F)cc1-c1cc(Cl)c(CNc2ccc(Cl)cc2)c(-c2ccc(Cl)c(C(F)(F)F)c2)c1O` [NUCC-0227062]: 0.964 µM, 2.31 µM, 40.7% and 15.
In the same order, the values of `Cn1nc(C(F)(F)F)c(Cl)c1-c1cc(F)c(COc2ccc(Cl)cc2)c(-c2ccc(Cl)c(C(F)(F)F)c2)c1O` [NUCC-0227063] are 0.985 µM, 5.02 µM, 37.2% and 12.4.
On to `Cn1nc(C(F)(F)F)c(Cl)c1-c1ccc(COc2ccc(Cl)cc2Cl)c(-c2ccc(Cl)c(C(F)(F)F)c2)c1O` [NUCC-0227064], for which the IC50 in data set [1] was determined as 0.399 µM; in data set [2] it was 8.27 µM. The remaining activity at 10 µM in data set [3] was determined as 42%. The fold induction at 10 µM in data set [4] is 12.7.
In the same order, the values of `Cn1nc(C#N)cc1-c1cc(Cl)c(COc2ccc(Cl)cc2)c(-c2ccc(Cl)c(C(F)(F)F)c2)c1O` [NUCC-0227065] are 0.74 µM, 3.8 µM, 35.4% and 13.4.
The matching figures for `Cn1nc(C(F)(F)F)cc1-c1cc2c(c(-c3ccc(Cl)c(C(F)(F)F)c3)c1O)CN(Cc1ccc(Cl)cc1)CC2` [NUCC-0227169]: 3.28 µM, 8.01 µM, 41.8% and 14.6.
In the case of `Cn1nc(C(F)(F)F)cc1-c1cc2c(c(-c3ccc(Cl)c(C(F)(F)F)c3)c1O)OC(c1ccc(Cl)cc1)CC2` (centres unmarked) [NUCC-0227173], the results for the IC50 in data set [1] and in data set [2] were 4.74 µM and 14.1 µM, respectively. Moreover, the remaining activity at 10 µM in data set [3] was 62.9%. Also, the fold induction at 10 µM in data set [4] came to 9.
The matching figures for `Cn1nc(C(F)(F)F)c(Cl)c1-c1cc(Cl)c(Oc2ccc(Cl)cc2)c(-c2ccc(Cl)c(C(F)(F)F)c2)c1O` [NUCC-0227246]: 0.91 µM, 5.78 µM, 37.3% and 23.5.
Turning to `Cn1nc(C(F)(F)F)cc1-c1ccc(Oc2ccc(Cl)cc2)c(-c2ccc(Cl)c(C(F)(F)F)c2)c1O` [NUCC-0227247], the half-inhibitory concentration (IC50) is 1.14 µM in data set [1] and 7.12 µM in data set [2]. The remaining activity at 10 µM in data set [3] worked out at 46.7%. The fold induction at 10 µM in data set [4] was found to be 18.3.
